Experimental data from patent US11034692B1 (Genentech, Inc., priority 2017, dated 2021).
Read-outs that look alike come from different tables or passages of the source.

Experiments:
HPK1 [1] = target: HPK1 (Homo sapiens, UniProt Q92918); experiment: HPK1 Lantha Binding Assay ("Lanth"); conditions: Table B2, read-out: HPK1 Ki (nM), L = Lanth
In short: (§1)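 TR-FRET tracer displacement with 2 nM GST-tagged kinase, 2 nM Eu-anti-GST antibody and 15 nM Tracer222 at 23 C. Enzyme–antibody preincubated 1 h with compound, then tracer added for 1 h; 340 nm excitation, 615/665 nm emission. Ki from Morrison fit over an 11-point 5-fold dilution.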

[2] = test system: primary human pan T cells; experiment: Human T-Cell IL2 Induction Assay; format: cell-based; conditions: anti-CD3/anti-CD28 stimulated primary human pan T cells
Description: Human T-Cell IL2 Induction Assay
Anti-CD3 and anti-CD28 activates TCR signaling in primary human pan T cells leading to IL-2 promoter induction. Secreted IL-2 in cell culture supernatant is detected by electrochemiluminescence using a capture antibody against IL-2 and an anti-IL-2 antibody labeled with SULFO-tag.
See www.mesoscale.com for additional electrochemiluminescence technology information.
Incubate primary human pan T cells with varying concentrations of test compounds for 30 minutes in a humidified incubator at 37° C. and 5% CO2. Transfer cells to a plate pre-coated with a fixed concentration of anti-human CD3 (determined separately for each donor lot) and add soluble anti-human CD28 (final concentration=1 μg/ml). Stimulate cells in a humidified incubator at 37° C. and 5% CO2 for 4 hours. Transfer 25 μl of supernatant to a MSD single spot plate pre-coated with an anti-human IL-2 antibody. Incubate MSD plate overnight at 4° C. with gentle shaking. Wash MSD plate 4× with wash buffer. Add SULFO-tagged detection antibody at a 1:50 dilution and incubate at room temperature shaking for 2 hours. Wash MSD plate 4× with wash buffer and add 150 μl 2×MSD read buffer. Read on an MSD instrument. Normalize data to stimulated/untreated controls to calculate % activity at each concentration of compound.
Materials: • Frozen Primary Human Pan-T Cells (StemCell Technologies #70024) • anti-human CD3 (OKT3 clone) (eBioscience #16-0037-81) • anti-human CD28 (CD28.2 clone) (BD #555725) • 96-well Human IL-2 tissue culture kit (MSD #K151AHB-4)
Instrumentation: • Biomek FX for liquid handling (Beckman Coulter) • MSD SECTOR S 600 (Meso Scale Discovery)
Exemplary compounds of Formula I or Ia were tested in the human T-cell IL-2 induction assays. The % increase measured for IL-2 in cells treated by the test compounds relative to untreated cells are provided in Table B2 for certain compounds (structures as shown with the HPK1 Ki values).

HPK1 [3] = experiment: HPK1 Lantha Binding Assay ("Lanth")
In short: as §1

[4] = target: HPK1-FL (HPK full length, T165E S171E) (Homo sapiens (Human), UniProt Q92918, S171E/T165E); experiment: HPK1-FL HTRF Enzymatic Assay ("HTRF"); format: biochemical; conditions: Table B2, read-out: HPK1 Ki (nM), H = HTRF
Description: HPK1-FL HTRF Enzymatic Assay (“HTRF”)
HPK-FL enzyme phosphorylates Biotin-SLP-76 substrate in the presence of ATP at 1 mM and varying concentrations of test compound. Product is detected by FRET using Eu-anti-pSLP76 Ab and SA-XL665. See www.cisbio.com/HTRF for additional HTRF technology information.
Instrumentation: • Echo555 compound dispenser • Agilent Bravo • Perkin Elmer Envision
Materials: • Assay plate: White ProxiPlate 384 F (PerkinElmer cat #6008289) • Kinase: HPK full length double mutant • Substrate: Biotin-SLP76 • ATP: 100 mM ATP • BSG: 2% BSG • DMSO: DMSO (Sigma cat #34869-100ML) • Reaction Buffer: H2O/50 mM HEPES, pH 7.5/10 mM MgCl2/2 mM TCEP/0.01% Brij-35/0.01% BSG • Detection mix: Eu-anti-pSLP76/SA-XL665 (Cisbio, #610SAXAC)
Assay Procedure Ki Determination:
To a 384 well Proxiplate with 80 nL compound or DMSO spotted on was added 4 μl/well kinase mix. The mixture was preincubated for 30 minutes and then 4 μl/well substrate mix was added. The solution was incubated for 60 min and then 4 μl/well detection mix was added. The solution was incubated for another 60 min. The plates were then loaded onto a Perkin Elmer Envision and the TR-FRET signal was measured at 615 and 665 nm. A ratio of […] was used to calculate the % activity at each concentration of compound.

[5] = Table B1-1, read-out: HPK1 Ki (μM) (Lanth)
[6] = Table B2, read-out: HPK1 Ki (nM), L = Lanth
[7] = Table B1-2, read-out: HPK1 Ki, L = Lanth

HPK1 (Homo sapiens, UniProt Q92918), sequence (Q92918 whole entry, looked up): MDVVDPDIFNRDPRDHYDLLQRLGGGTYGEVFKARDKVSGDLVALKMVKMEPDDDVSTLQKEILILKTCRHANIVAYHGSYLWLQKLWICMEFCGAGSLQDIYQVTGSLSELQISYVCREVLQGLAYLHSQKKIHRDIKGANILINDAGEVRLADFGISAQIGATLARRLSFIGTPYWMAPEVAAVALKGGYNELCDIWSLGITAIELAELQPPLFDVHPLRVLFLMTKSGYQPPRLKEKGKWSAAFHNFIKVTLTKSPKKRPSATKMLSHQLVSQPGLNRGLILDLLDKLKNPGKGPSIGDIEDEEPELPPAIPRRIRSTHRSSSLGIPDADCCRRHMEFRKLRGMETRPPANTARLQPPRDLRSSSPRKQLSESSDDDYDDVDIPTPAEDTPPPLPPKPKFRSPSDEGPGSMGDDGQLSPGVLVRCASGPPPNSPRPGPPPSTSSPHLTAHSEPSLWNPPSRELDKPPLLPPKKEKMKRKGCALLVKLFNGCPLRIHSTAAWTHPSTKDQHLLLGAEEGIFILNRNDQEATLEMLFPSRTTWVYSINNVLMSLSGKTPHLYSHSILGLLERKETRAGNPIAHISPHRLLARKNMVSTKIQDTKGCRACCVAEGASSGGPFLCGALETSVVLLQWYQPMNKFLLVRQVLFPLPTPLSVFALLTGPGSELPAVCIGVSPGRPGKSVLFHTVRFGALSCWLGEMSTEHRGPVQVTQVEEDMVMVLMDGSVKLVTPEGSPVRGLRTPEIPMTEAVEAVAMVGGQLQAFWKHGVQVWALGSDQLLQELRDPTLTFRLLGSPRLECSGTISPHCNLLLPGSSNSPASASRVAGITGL
HPK1-FL (HPK full length, T165E S171E), sequence (Q92918 whole entry T165E/S171E): as the sequence (Q92918 whole entry, looked up) above, with T165E, S171E counted along it

Row | Structure (SMILES) | Ki (HPK1 [3]; [5]) [nM] | Ki (HPK1 [3]; [6]) [nM] | % IL-2 increase relative to untreated cells ([2]; assayed concentration 0.93 μM) [%] | other results
1 | Cc1n[nH]c(C)c1-c1cc2cc(NC(=O)[C@@H]3C[C@@H]3F)ncc2c(N)n1 (racemic) [Compound 103, (±)-cis-N-(8-amino-6-{3,5-dimethyl-1H-pyrazol-4-yl)-2,7-naphthyridin-3-yl)-2-fluorocyclopropane-1-carboxamide] | – | – | – | Ki (HPK1 [1]): 3.8 nM; % IL-2 increase relative to untreated cells ([2]; assayed concentration 0.31 μM): 94%
2 | Cc1ccncc1-c1cc2cc(NC(=O)[C@H]3[C@@H](C)[C@@H]3c3cnn(C)c3)ncc2c(N)n1 (single isomer, unassigned) [Compound 328] | 0.114 | 0.11 | 936 | –
3 | Cc1cccc(F)c1-c1cc2cc(NC(=O)[C@@H]3[C@H](C)[C@H]3c3cnn(C)c3)ncc2c(N)n1 (single isomer, unassigned) [Compound 356] | – | 0.3 | – | Ki (HPK1 [3]; [7]): 0.3 nM; % IL-2 increase relative to untreated cells ([2]; assayed concentration 2.8 μM): 732%
4 | Cc1ccncc1-c1cc2cc(NC(=O)C3CC3)ncc2c(N)n1 [Compound 24, N-(8-amino-6-(4-methylpyridin-3-yl)-2,7-naphthyridin-3-yl)cyclopropanecarboxamide] | 0.68 | 0.68 | 513 | –
5 | Cc1ccncc1-c1cc2cc(Nc3cc4n(n3)CC(=O)N(C)CC4)ncc2c(N)n1 [Compound 256, 2-[[8-amino-6-(4-methylpyridin-3-yl)-2,7-naphthyridin-3-yl]amino]-6-methyl-4H,5H,6H,7H,8H-pyrazolo[1,5-d][1,4]diazepin-7-one] | 0.02 | – | – | Ki [4]: 0.59 nM; % IL-2 increase relative to untreated cells ([2]; assayed concentration 0.31 μM): 699%

Second part, led by results:

Row | Ki (HPK1 [3]; [5]) [nM] | Ki (HPK1 [3]; [6]) [nM] | Structure (SMILES) | % IL-2 increase relative to untreated cells ([2]; assayed concentration 0.93 μM) [%] | other results
6 | 0.0675 | – | Cc1ccncc1-c1cc2cc(Nc3cnn([C@H](C)C#N)c3)ncc2c(N)n1 (single isomer, unassigned) [Compound 273] | 830 | Ki (HPK1 [1]): 0.06 nM
7 | 2.6 | 2.6 | CNC(=O)Nc1cc2cc(-c3cnccc3C)nc(N)c2cn1 [Compound 130, 1-[8-amino-6-(4-methyl-3-pyridyl)-2,7-naphthyridin-3-yl]-3-methyl-urea] | 274 | –
8 | – | 0.033 | Cc1ccncc1-c1cc2cc(Nc3ccc(CC#N)cn3)ncc2c(N)n1 [Compound 389, 2-[6-[[8-amino-6-(4-methyl-3-pyridyl)-2,7-naphthyridin-3-yl]amino]-3-pyridyl]acetonitrile] | – | Ki (HPK1 [3]; [7]): 0.033 nM; % IL-2 increase relative to untreated cells ([2]; assayed concentration 0.10 μM): 265%
